The values below come from US10201158B2, “Plant disease control composition and method for controlling plant disease by application of same” (MITSUI CHEMICALS AGRO, INC., priority 2014, dated 2019).

The test system of test [1] is Botrytis cinerea. As to conditions: in vivo.
The test system of test [2] is Pyricularia oryzae. Format: in vivo. As to conditions: for Control value: Table 3-1.
Test [3] deals with Blumeria graminis. The experiment in a line: Barley powdery mildew preventive test. Format: in vivo. As to conditions: Table 4, 8 days after inoculation. How it is done:
Barley plants (variety: Akashinriki) planted in plastic pots having a diameter of 5 cm were grown indoors to the second to fourth leaf stage. Wettable powder containing the compounds indicated in Table 4 were sprayed in the same manner as in Test Example 1, and after the chemical had dried, conidia of Blumeria graminis was inoculated onto the leaves. Following inoculation, the pots were transferred to a constant-temperature chamber (20° C. to 25° C.), and control effects were examined 8 days after inoculation.

The subject of test [4] is Phytophthora infestans. It counts as in vivo. As to conditions: for Control value: Table 6-1.
Test [5] relates to Pseudoperonospora cubensis. The experiment in a line: Cucumber downy mildew preventive test. Format: in vivo. As to conditions: Table 8, 7 days after inoculation. Here is the method:
In a greenhouse, cucumber (variety: Sagamihanshiro) planted in a plastic pot having a diameter of 5 cm was grown to the 3rd to 5th-leaf stage. Spray was carried out in the same manner as in Test example 1, and after drying the chemical liquid, the pots were transferred into a greenhouse. After 3 days from the spray, a zoosporangium suspension of Pseudoperonospora cubensis was inoculated. After inoculation, the pots were placed in a high-humidity chamber (20 to 25° C.), transferred into a greenhouse on the next day, and controlling effects were examined after 7 days from the inoculation. A ratio of lesion area occupied per one leaf of cucumber was determined according to the same index as in Test example 1, and the control value and the theoretical value according to Colby's formula were similarly calculated.

The test system of test [6] is Puccinia recondita. The test is described as follows: Wheat brown rust preventive test. It counts as in vivo. As to conditions: Table 5, 8 days after inoculation. How it is done: Wheat plants (variety: Norin 61 gou) planted in plastic pots having a diameter of 5 cm were grown indoors to the second to fourth leaf stage. Wettable powder containing the compounds indicated in Table 5 were sprayed in the same manner as in Test Example 1, and after the chemical had dried, a conidia suspension of Puccinia recondita was inoculated onto the leaves. Following inoculation, the pots were placed in the humidified chamber of an artificial inoculation room (20° C. to 23° C.), removed on the following day and then transferred to a greenhouse. Control effects were examined 8 days after inoculation. During the examination, the number of lesions on five leaves of the wheat plants was determined in accordance with the following incidence degree indicators, and control values and theoretical values as determined according to Colby's formula were calculated in the same manner as in Test Example 1.

In test [7] the test system is Sphaerotheca fuliginea. The test is described as follows: Cucumber powdery mildew preventive test. Format: in vivo. As to conditions: in vivo. Here is the method: In a greenhouse, cucumber (variety: Sagamihanshiro) planted in a plastic pot having a diameter of 5 cm was grown to the 3rd to 5th-leaf stage. Spray was carried out in the same manner as in Test example 1, and 3 days after the spray, a conidia suspension prepared from Sphaerotheca fuliginea were inoculated on the leaf surface. After inoculation, the pots were placed in a thermostatic greenhouse (20 to 25° C.), and controlling effects were examined after 7 days from the inoculation. In the examination, a ratio of lesion area occupied per one leaf of cucumber was determined according to the same index as in Test example 1, and the control value and the theoretical value according to Colby's formula were similarly calculated.
Wettable powder prepared in compliance with Comparative Preparation Example 4 containing the compounds indicated in Table 7-9 were sprayed to the cucumber leaves, a conidiospore suspension prepared from Sphaerotheca fuliginea was inoculated onto the plants, and the controlling effects were examined in a manner similar to Test Example 6.

Setting [8] is: Table 6-2, treatment concentration 0.08 ppm, 5 days after inoculation.
Where [9] appears, read: treatment concentration 0.08 ppm.
The mark [10] stands for this setting: Table 6-2, treatment concentration 2 ppm, 5 days after inoculation.
[11] abbreviates: Table 3-2, treatment concentration 10 ppm.
Setting [12] is: Table 3-3, treatment concentration 10 ppm.
Where [13] appears, read: Table 3-4, treatment concentration 10 ppm.
Where [14] appears, read: Table 3-5 (Comparative Example 2), treatment concentration 10 ppm.
Setting [15] is: treatment concentration 10 ppm, 5 days after inoculation.
The mark [16] stands for this setting: Table 6-2, treatment concentration 10 ppm, 5 days after inoculation.
The mark [17] stands for this setting: Table 6-3, treatment concentration 10 ppm, 5 days after inoculation.
The mark [18] stands for this setting: treatment concentration 0.4 ppm.

Values joined by “and” are separate entries in the source; they are usually repeats but may differ in a detail not shown here. Equal values may be shown once. Read-outs that look alike come from different tables or passages of the source.

In the case of `Cn1cc(C(=O)Nc2cccc3c2[C@@H]2CC[C@H]3C2=C(Cl)Cl)c(C(F)F)n1` (racemic) [Benzovindiflupyr (b-2), Benzovindiflupyr], the Preventive value is recorded as 40 in test [1] and 40 in test [2] (Table 3-4, group b ingredient alone, treatment concentration 10 + 2 ppm). The compound also registered a Control value in test [3] (treatment concentration 2 ppm) of 50.
Consider `CCCCCCCCc1c(CC)nc2ncnn2c1N` [Ametoctradin (b-95), Ametoctradin], for which the Preventive value came to 40 in test [4] (in vivo) and 50 in test [5] (treatment concentration 2 ppm).
For the compound `Cc1c(Br)c2ccc(F)cc2n1S(=O)(=O)c1ncn(S(=O)(=O)N(C)C)n1` [Amisulbrom (b-97), Amisulbrom], the Preventive value in test [4] (setting [8]) is 50; in test [5] (setting [9]), 67.
`COC(=O)[C@@H](C)N(C(=O)Cc1ccccc1)c1c(C)cccc1C` [Benalaxyl-M (b-75), Benalaxyl-M]: the Preventive value in test [4] (setting [10]) was determined as 40; in test [5] (treatment concentration 2 ppm) it was 67.
For `CC1(C)N=C(c2cnc3ccccc3c2)c2cccc(F)c2C1(C)C` [Compound A, 3-(5-fluoro-3,3,4,4-tetramethyl-3,4-dihydroisoquinolin-1-yl)quinoline], the Control value was 64 in test [1]; 67 in test [2] (treatment concentration 10 ppm); 6 in test [3] (treatment concentration 10 ppm); 11 in test [6] (treatment concentration 10 ppm); 8 in test [4] (setting [15]); 33 and 17 in test [7]. In addition, the Preventive value in test [1] was 77 and 70 and 73 and 67 and 40; in test [2] (setting [11]) it was 73; in test [2] (setting [12]) it was 73; in test [2] (setting [13]), 67; in test [2] (setting [14]), 67; in test [4] (setting [16]) it was 33. Besides, the Preventive value in test [4] (setting [17]) is 47; in test [7], 40; in test [5] (treatment concentration 10 ppm) it was 27.
For `CC1(C)N=C(c2cnc3ccccc3c2)c2ccccc2C1(F)F` [Compound B, 3-(4,4-difluoro-3,3-dimethyl-3,4-dihydroisoquinolin-1-yl)quinoline], the Control value is 57 in test [1]; 67 in test [2] (treatment concentration 10 ppm); 6 in test [3] (treatment concentration 10 ppm); 6 in test [6] (treatment concentration 10 ppm); 13 in test [4] (setting [15]); 33 and 17 in test [7]. For the same compound, the Preventive value in test [1] is 77 and 70 and 73 and 80 and 67 and 40; in test [2] (setting [11]), 73; in test [2] (setting [12]), 73; in test [2] (setting [13]) it was 67; in test [2] (setting [14]), 67; in test [4] (setting [16]), 33. Besides, the Preventive value was 40 in test [4] (setting [17]); 33 and 40 in test [7]; 23 in test [5] (treatment concentration 10 ppm).
`CC1CC(C)(C)c2cccc(NC(=O)c3cn(C)nc3C(F)F)c21` (stereo not drawn) [Compound of formula (II) (b-3)]: the Control value in test [1] is given as 0; in test [2] (treatment concentration 2 ppm) it was 17; in test [3] (treatment concentration 2 ppm), 67.
For the compound `CC1(CCl)CCC(Cc2ccc(Cl)cc2)C1(O)Cn1cncn1` (stereo not drawn) [Compound of formula (VII)-1 (b-38)], the Control value stood at 7 in test [1], 50 in test [2] (treatment concentration 2 ppm), 81 in test [3] (treatment concentration 2 ppm) and 69 in test [6] (treatment concentration 2 ppm).
For `COc1cc(F)c(-c2c(Cl)nc(C)n2-c2cccc(F)c2)c(F)c1` [Compound of formula (XIV) (b-88)], the Control value in test [1] turned out to be 14; in test [2] (treatment concentration 2 ppm), 50; in test [3] (treatment concentration 2 ppm), 56; in test [6] (treatment concentration 2 ppm), 42. The Preventive value in test [1] is recorded as 50; in test [7] it was 40.
For `O=C(CO)[C@@H](O)[C@@H](O)[C@H](O)CO` [D-tagatose (b-93), D-tagatose], the Preventive value is recorded as 33 in test [1]; 40 in test [4] (Table 6-3, treatment concentration 5000 ppm, 5 days after inoculation); 33 in test [7].
As to `N#Cc1sc2c(=O)c3ccccc3c(=O)c=2sc1C#N` [Dithianon (b-81), Dithianon], the Preventive value in test [1] was 33; in test [4] (Table 6-3, treatment concentration 2 ppm, 5 days after inoculation), 33.
In the case of `O=C(NCc1ncc(C(F)(F)F)cc1Cl)c1c(Cl)cccc1Cl` [Fluopicolide (b-40), Fluopicolide], the Preventive value in test [4] (setting [10]) came out at 40; in test [5] (treatment concentration 2 ppm) it was 67.
In test [1], `Cn1cc(C(=O)Nc2ccccc2-c2cc(F)c(F)c(F)c2)c(C(F)F)n1` [Fluxapyroxad (b-1), Fluxapyroxad] registered a Preventive value of 33. Besides, the Control value in test [2] (treatment concentration 2 ppm) is on record as 17; in test [3] (treatment concentration 2 ppm) it was 61; in test [6] (treatment concentration 2 ppm), 72.
For `Cc1cc(O)no1` [Hymexazol (b-106)], the Preventive value is given as 33 in test [4] (Table 6-2, treatment concentration 250 ppm, 5 days after inoculation) and 17 in test [5] (treatment concentration 250 ppm).
As for `Cc1ccc(C(C)NC(=O)[C@@H](NC(=O)OC(C)C)C(C)C)cc1` (stereo partly drawn) [Iprovalicarb (b-50), Iprovalicarb], the Preventive value in test [4] (setting [10]) was found to be 50.
Regarding `Cc1ccc(C(C)NC(=O)[C@@H](NC(=O)OC(C)C)C(C)C)cc1` (stereo partly drawn) [Iproyalicarb (b-50)], the Preventive value in test [5] (treatment concentration 2 ppm) stood at 50.
For `Cc1cc(OC(C)C)ccc1C(=O)C(C)(C)NC(=O)c1sccc1C` [Isofetamid (b-47), Isofetamid], the Control value is 17 in test [2] (treatment concentration 10 ppm), 67 in test [3] (treatment concentration 10 ppm) and 3 in test [6] (treatment concentration 10 ppm).
Consider `C#CCOc1ccc(CCNC(=O)C(OCC#C)c2ccc(Cl)cc2)cc1OC` (stereo not drawn) [Mandipropamid (b-44), Mandipropamid], for which the Preventive value in test [4] (setting [8]) and in test [5] (setting [9]) was 67 each time.
In the case of `CNC(=O)/C(=N/OC)c1ccccc1CO/N=C(C)/C(=N/OC)C(/C)=N/OC` [Orysastrobin (b-53), Orysastrobin], the Preventive value is recorded as 47 in test [1] and 60 in test [2] (setting [11]). Moreover, the Control value in test [7] was determined as 40.
For the compound `Cc1cc(C(F)(F)F)nn1CC(=O)N1CCC(c2nc(C3=NOC(c4c(F)cccc4F)C3)cs2)CC1` (stereo not drawn) [Oxathiapiprolin (b-84), Oxathiapiprolin], the Preventive value in test [1] stood at 33; in test [4] (Table 6-3, treatment concentration 0.0016 ppm, 5 days after inoculation) it was 67; in test [7], 17.
For the compound `CCn1cc(C(=O)O)c(=O)c2cc3c(cc21)OCO3` [Oxolinic acid], the Preventive value in test [1] amounted to 17; in test [2] (Table 3-5 (Comparative Example 2), treatment concentration 50 ppm), 33; in test [7], 33.
For the compound `Cn1nnnc1/C(=N\OCc1cccc(NC(=O)OC(C)(C)C)n1)c1ccccc1` [Picarbutrazox (b-78), Picarbutrazox], the Control value in test [1] is given as 0; in test [2] (setting [18]) it was 17; in test [6] (setting [18]), 3; in test [4] (treatment concentration 0.4 ppm, 5 days after inoculation) it was 75.
Regarding `O=C(Nc1ccccc1-c1ccc(F)c(F)c1)c1nccnc1C(F)(F)F` [Pyraziflumid (b-49), Pyraziflumid], the Preventive value in test [1] stood at 40. In addition, the values for the Control value in test [2] (treatment concentration 2 ppm) and in test [6] (treatment concentration 2 ppm) were 17 and 85, respectively.
Regarding `CCC(C)(NC(=O)c1cc(Cl)c(C)c(Cl)c1)C(=O)CCl` (stereo not drawn) [Zoxamide (b-39), Zoxamide], the Preventive value in test [4] (Table 6-2, treatment concentration 0.4 ppm, 5 days after inoculation) is given as 40; in test [5] (setting [18]) it was 33.
